These are literature values, as cited in patent US20240101656A1, “PLK1 INHIBITOR IN COMBINATION WITH ANTI-ANGIOGENICS FOR TREATING METASTATIC CANCER” (CARDIFF ONCOLOGY, INC., priority 2022, published 2024).

Read-outs that look alike come from different tables or passages of the source.

The conditions of data set [1]: 2nd line.
The test system of a further data set is xenograft tumor. As to conditions: well tolerated doses, oral administration.
The test system of data set [2] is patients with advanced/metastatic solid tumors.
The subject of data set [3] is disseminated models of AML.
Data set [4] deals with cell lines, both from solid as well as hematologic tumors.
For data set [5] the following is noted: in vivo.
A further data set relates to xenograft models of AML. As to conditions: in vivo.
For another data set, the target named is PLK1 (Homo sapiens, UniProt P53350).
Sequence of PLK1 (P53350 whole entry): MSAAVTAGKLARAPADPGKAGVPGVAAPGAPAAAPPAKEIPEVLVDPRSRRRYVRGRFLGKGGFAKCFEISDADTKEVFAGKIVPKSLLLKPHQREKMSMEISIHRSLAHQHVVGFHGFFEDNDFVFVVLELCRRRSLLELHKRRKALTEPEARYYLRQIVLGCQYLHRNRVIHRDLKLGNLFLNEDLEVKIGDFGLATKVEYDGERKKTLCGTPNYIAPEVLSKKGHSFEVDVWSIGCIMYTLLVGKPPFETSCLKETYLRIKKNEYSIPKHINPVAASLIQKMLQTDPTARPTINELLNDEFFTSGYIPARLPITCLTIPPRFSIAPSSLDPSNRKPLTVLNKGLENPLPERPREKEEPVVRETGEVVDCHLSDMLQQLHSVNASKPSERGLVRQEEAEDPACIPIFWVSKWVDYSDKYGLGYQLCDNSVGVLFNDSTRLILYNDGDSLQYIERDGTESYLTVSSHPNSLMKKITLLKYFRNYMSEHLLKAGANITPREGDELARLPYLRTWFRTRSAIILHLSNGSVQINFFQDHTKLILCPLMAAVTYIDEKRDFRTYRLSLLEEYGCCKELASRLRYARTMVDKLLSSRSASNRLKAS
The test system of data set [6] is HT29 human colon adenocarcinoma xenografts. As to conditions: combination therapy with irinotecan.
The next data set deals with AML. As to conditions: in combination with LDAC.
Data set [7] concerns patients with AML who were treatment naïve yet unsuitable for induction therapy. As to conditions: intravenously, in combination with LDAC.

Turning to “bev: anti-angiogenics; Bevacizumab (also referred to herein as "bev")”, the mOS is on record as 13.9 months in [1] (bev naïve) and 12.5 months in data set [1] (prior bev). Also, the mPFS in data set [1] (bev naïve) is on record as 6.9 months; in data set [1] (prior bev), 6.7 months.
Turning to `CN1CCN(c2ccc(OC(F)(F)F)c(Nc3ncc4c(n3)-c3c(c(C(N)=O)nn3CCO)CC4)c2)CC1` [onvansertib, 1-(2-hydroxyethyl)-8-{[5-(4-methylpiperazin-1-yl)-2-(trifluoromethoxy)phenyl]amino}-4,5-dihydro-1H-pyrazolo[4,3-h]quinazoline-3-carboxamide], in the data set on cancer cell lines, the cell-cycle effect entry is “mitotic cell-cycle arrest followed by apoptosis”. The xenograft tumor growth entry in the data set on xenograft tumor is listed as “inhibits xenograft tumor growth”. Further, in data set [2] (in vivo), the primary dose-limiting toxicities entry is “neutropenia and thrombocytopenia”. Further, the “recovery from hematologic toxicities” value in data set [2] (reversible) is listed as at most 3 weeks. Also, the survival of animals entry in data set [3] (combination therapy with cytarabine) is “prolonged survival”. The cytarabine antitumor activity entry in data set [3] (in combination with cytarabine) is reported as “significantly increased”. In addition, the “activity in proliferation assays” value in data set [4] was “low nanomolar activity”. For the same compound, the oral bioavailability entry in data set [5] is listed as “good oral bioavailability”. Besides, the “concentrations inhibiting cell proliferation” value in the data set on AML cell lines was “nanomolar concentrations”. Besides, the tumor growth result with xenograft models of AML is “inhibited”. Also, the “specificity for PLK1 among a panel of 296 kinases, including other PLK members” value on PLK1 was “high specificity”. The “tumor regression compared to each agent alone” value in data set [6] is reported as “enhanced tumor regression”.
As to `CC[C@@H]1C(=O)N(C)c2cnc(Nc3ccc(C(=O)N[C@H]4CC[C@H](N5CCN(CC6CC6)CC5)CC4)cc3OC)nc2N1C(C)C` [volasertib (BI6727)], in the data set with AML, the “benefit of the combination” value is reported as “no benefit” and the “risk of severe infections” value is “increased risk of severe infections”. The “OS compared with LDAC alone” value in [7] is given as “significant increase in OS”.
